Measurements taken from US20250059220A1, “SUBSTITUTED BENZOTHIOPHENE DERIVATIVES AND METHODS OF USE THEREOF” (Merck Sharp & Dohme LLC, priority 2021, published 2025).

Columns and labels:
human PTPN2 (1-387) = human PTPN2 (1-387) (Homo sapiens (Human), UniProt P17706); test: Human PTPN2 Biochemical Assay; conditions: DiFMUP substrate
Summary of the method: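 Fluorogenic DiFMUP hydrolysis (1 h, room temperature, read ex 360/em 460 nm) after 30 min compound preincubation with PTPN2 residues 1-387, in 50 mM Tris pH 7.4, 150 mM NaCl, 0.01% Tween20, 0.5 mM DTT. Effects scaled between buffer and enzyme controls, 4-parameter fit gives EC50.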

human PTPN1 (1-435) = human PTPN1 (1-435) (Homo sapiens (Human), UniProt P18031); test: Human PTPN1 Biochemical Assay; conditions: DiFMUP substrate, read-out: PTP1B IC50
Summary of the method: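 Read-out is DiFMUP hydrolysis fluorescence (360 nm excitation, 460 nm emission) after 1 h at room temperature, following 30 min enzyme–compound preincubation.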

Chain of human PTPN1 (1-435) (P18031 whole entry): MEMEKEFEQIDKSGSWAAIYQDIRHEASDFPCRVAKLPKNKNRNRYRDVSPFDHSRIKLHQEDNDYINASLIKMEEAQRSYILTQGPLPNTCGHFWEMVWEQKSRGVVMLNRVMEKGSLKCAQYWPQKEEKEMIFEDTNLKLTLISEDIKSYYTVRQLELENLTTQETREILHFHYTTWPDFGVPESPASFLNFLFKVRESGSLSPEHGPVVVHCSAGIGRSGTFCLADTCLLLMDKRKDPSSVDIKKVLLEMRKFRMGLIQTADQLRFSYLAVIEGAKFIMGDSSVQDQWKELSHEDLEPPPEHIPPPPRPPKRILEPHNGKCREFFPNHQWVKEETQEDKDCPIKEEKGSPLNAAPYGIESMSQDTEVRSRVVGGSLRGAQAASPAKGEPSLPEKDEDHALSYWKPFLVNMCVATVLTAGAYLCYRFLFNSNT
Chain of human PTPN2 (1-387) (P17706 other isoform, or with tags, fused parts or gaps): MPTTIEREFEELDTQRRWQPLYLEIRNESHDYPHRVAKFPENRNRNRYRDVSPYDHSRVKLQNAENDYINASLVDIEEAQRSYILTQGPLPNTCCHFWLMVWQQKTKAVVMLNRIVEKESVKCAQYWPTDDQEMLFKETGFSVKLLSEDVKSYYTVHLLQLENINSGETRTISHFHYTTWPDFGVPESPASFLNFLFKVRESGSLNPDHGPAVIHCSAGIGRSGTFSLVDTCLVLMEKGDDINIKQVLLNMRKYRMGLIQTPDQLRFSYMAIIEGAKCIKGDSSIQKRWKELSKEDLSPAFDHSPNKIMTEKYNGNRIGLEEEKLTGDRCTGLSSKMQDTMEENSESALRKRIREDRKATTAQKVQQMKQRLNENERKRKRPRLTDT

IC50 (human PTPN2 (1-387)) | IC50 (human PTPN1 (1-435)) | Structure (SMILES)
2.5 nM | 2.5 nM | O=P(O)(O)C(F)(F)c1sc2c(OCC3CC3(F)F)cc(-c3nc[nH]n3)cc2c1Br (stereo not drawn) [Compound 441]
117 nM | 195 nM | Cc1ccc(COc2cc(C(N)=O)cc3c(Br)c(C(F)(F)P(=O)(O)O)sc23)cc1C(F)(F)F [Compound 344]
8750 nM | 9210 nM | CC(C)(NC(=O)c1ccc2sc(C(F)(F)P(=O)(O)O)c(Br)c2c1)c1ncn(-c2ccccc2)n1 [Compound 70]
3560 nM | 3200 nM | O=C(NC1COc2ccccc2C1)c1ccc2sc(C(F)(F)P(=O)(O)O)c(Br)c2c1 (stereo not drawn) [Compound 110]
29.7 nM | 28.2 nM | NC(=O)c1cc(OCCCC(F)(F)F)c2sc(C(F)(F)P(=O)(O)O)c(Br)c2c1 [Compound 168]
19.3 nM | 128 nM | NC(=O)c1cc(OCc2ccc(-c3ncccn3)cc2)c2sc(C(F)(F)P(=O)(O)O)c(Br)c2c1 [Compound 343]
470 nM | 251 nM | O=C(NCc1c[nH]nn1)c1cc(Cl)c2sc(C(F)(F)P(=O)(O)O)c(Br)c2c1 [Compound 159]
6040 nM | 5120 nM | O=C(NCCn1nnc2ccccc21)c1ccc2sc(C(F)(F)P(=O)(O)O)c(Br)c2c1 [Compound 89]
60 nM | 79.6 nM | NC(=O)c1cc(OCc2ccccc2F)c2sc(C(F)(F)P(=O)(O)O)c(Br)c2c1 [Compound 242]
3920 nM | 2750 nM | O=C(NC1CCC(F)(F)CC1)c1ccc2sc(C(F)(F)P(=O)(O)O)c(Br)c2c1 [Compound 36]
5230 nM | 4700 nM | O=C1NC[C@H](CNC(=O)c2ccc3sc(C(F)(F)P(=O)(O)O)c(Br)c3c2)N1 [Compound 132]
1180 nM | 1450 nM | O=C(NCc1ccc(F)nc1)c1ccc2sc(C(F)(F)P(=O)(O)O)c(Br)c2c1 [Compound 133]
3210 nM | 2440 nM | O=P(O)(O)C(F)(F)c1sc2c(NCCC3CCCCC3)cccc2c1Br [Compound 223, ((3-bromo-7-((2-cyclohexylethyl)amino)benzo[b]thiophen-2-yl)difluoromethyl)phosphonic acid]
75.1 nM | 131 nM | NC(=O)c1cc(OCc2ccc(F)cc2OC(F)F)c2sc(C(F)(F)P(=O)(O)O)c(Br)c2c1 [Compound 342]
4.63 nM | 6.5 nM | O=C(NCc1c[nH]nn1)c1cc(OCCCC(F)(F)F)c2sc(C(F)(F)P(=O)(O)O)c(Br)c2c1 [Compound 209]
22.8 nM | 30.8 nM | N#Cc1c(C(F)(F)P(=O)(O)O)sc2c(OCC3CC3(F)F)cc(C(N)=O)cc12 (stereo not drawn) [Compound 425]
50.2 nM | 28 nM | CC12CC(COc3cc(C(N)=O)cc4c(Br)c(C(F)(F)P(=O)(O)O)sc34)(C1)C2 [Compound 283]
4780 nM | 3900 nM | COc1cccc(CNC(=O)c2ccc3sc(C(F)(F)P(=O)(O)O)c(Br)c3c2)c1OC(F)F [Compound 95]
54.1 nM | 69.7 nM | NC(=O)c1cc(OCC2CC2(F)F)c2sc(C(F)(F)P(=O)(O)O)c(Br)c2c1 (stereo not drawn) [Compound 250]
2530 nM | 5720 nM | CC(C)OCCNC(=O)c1ccc2sc(C(F)(F)P(=O)(O)O)c(Br)c2c1 [Compound 60]
5940 nM | 5270 nM | CC(Cn1ccnc1)NC(=O)c1ccc2sc(C(F)(F)P(=O)(O)O)c(Br)c2c1 (stereo not drawn) [Compound 148]
2380 nM | 1780 nM | O=C(NCc1cncnc1)c1ccc2sc(C(F)(F)P(=O)(O)O)c(Br)c2c1 [Compound 42]
4.4 nM | 5.4 nM | NC(=O)c1cc(OCCCC2(S(N)(=O)=O)CC2)c2sc(C(F)(F)P(=O)(O)O)c(Br)c2c1 [Compound 335]
4 nM | 8.7 nM | CS(=O)(=O)c1ccc(COc2cc(C(N)=O)cc3c(Br)c(C(F)(F)P(=O)(O)O)sc23)cc1Cl [Compound 390]

IC50 (human PTPN2 (1-387)) | IC50 (human PTPN1 (1-435)) | Structure (SMILES)
5780 nM | 4200 nM | COC1CC(NC(=O)c2ccc3sc(C(F)(F)P(=O)(O)O)c(Br)c3c2)C1 (stereo not drawn) [Compound 40]
7.84 nM | 11.7 nM | CNC(=O)c1cc(OCCCS(C)(=O)=O)c2sc(C(F)(F)P(=O)(O)O)c(C#N)c2c1 [Compound 422]
4170 nM | 4080 nM | CC(NC(=O)c1ccc2sc(C(F)(F)P(=O)(O)O)c(Br)c2c1)c1ccccc1-n1cccn1 (stereo not drawn) [Compound 113]
4.52 nM | 5.8 nM | CS(=O)(=O)c1ccc(COc2cc(C(N)=O)cc3c(Br)c(C(F)(F)P(=O)(O)O)sc23)cc1 [Compound 377]
3160 nM | 2570 nM | O=C(Nc1ccc(F)cc1)c1ccc2sc(C(F)(F)P(=O)(O)O)c(Br)c2c1 [Compound 25]
6.6 nM | 6.7 nM | Cc1c(C(F)(F)P(=O)(O)O)sc2c(OCCCS(C)(=O)=O)cc(-c3nc[nH]n3)cc12 [Compound 436]
214 nM | 736 nM | NC(=O)c1cc(OCc2ccc([C@H]3CC[C@H](C(F)(F)F)CC3)cc2)c2sc(C(F)(F)P(=O)(O)O)c(Br)c2c1 [Compound 400]
17100 nM | 8980 nM | N#Cc1ccc2c(Br)c(C(F)(F)P(=O)(O)O)sc2c1 [Compound 299, ((3-bromo-6-cyanobenzo[b]thiophen-2-yl)difluoromethyl)phosphonic acid]
64.9 nM | 43 nM | NC(=O)c1cc(OCCCCC(F)(F)F)c2sc(C(F)(F)P(=O)(O)O)c(Br)c2c1 [Compound 274]
1020 nM | 1130 nM | N#Cc1c(C(F)(F)P(=O)(O)O)sc2ccc(C(=O)Nc3ccccc3)cc12 [Compound 3, ((3-cyano-5-(phenylcarbamoyl)benzo[b]thiophen-2-yl)difluoromethyl)phosphonic acid]
6750 nM | 5030 nM | O=C(N[C@H]1CC[C@@H](C(F)(F)F)CC1)c1ccc2sc(C(F)(F)P(=O)(O)O)c(Br)c2c1 [Compound 54]
771 nM | 707 nM | O=C(NC(c1cccnc1)C(F)(F)F)c1ccc2sc(C(F)(F)P(=O)(O)O)c(Br)c2c1 (single isomer, unassigned) [Compound 222b, (R or S)-((3-bromo-5-((2,2,2-trifluoro-1-(pyridin-3-yl)ethyl)carbamoyl)benzo[b]thiophen-2-yl)difluoromethyl)phosphonic acid]
7170 nM | 1410 nM | O=C(NCCn1cccn1)c1ccc2sc(C(F)(F)P(=O)(O)O)c(Br)c2c1 [Compound 144]
4330 nM | 4130 nM | CC(C)C1CC(CNC(=O)c2ccc3sc(C(F)(F)P(=O)(O)O)c(Br)c3c2)C1 (stereo not drawn) [Compound 93]
130 nM | 207 nM | Cc1c(C(F)(F)P(=O)(O)O)sc2c(OCC3CC3(F)F)cc(C(N)=O)cc12 (stereo not drawn) [Compound 435]
1810 nM | 1480 nM | O=C(NCc1c[nH]nn1)c1ccc2sc(C(F)(F)P(=O)(O)O)c(Br)c2c1 [Compound 140]
21.8 nM | 23.4 nM | NC(=O)c1cc(OCC2CC2(F)F)c2sc(C(F)(F)P(=O)(O)O)c(Br)c2c1 (stereo not drawn) [Compound 315]
1280 nM | 940 nM | Cn1cc(NC(=O)c2ccc3sc(C(F)(F)P(=O)(O)O)c(Br)c3c2)cn1 [Compound 96]
8.04 nM | 9 nM | O=C(NC1CC(F)(F)C1)c1cc(OCCCC(F)(F)F)c2sc(C(F)(F)P(=O)(O)O)c(Br)c2c1 [Compound 206]
338 nM | 400 nM | NC(=O)c1cc(OCCC(F)(F)F)c2sc(C(F)(F)P(=O)(O)O)c(Br)c2c1 [Compound 271]
65 nM | 57.5 nM | CC(C)=CCCOc1cc(C(N)=O)cc2c(Br)c(C(F)(F)P(=O)(O)O)sc12 [Compound 307]
27.8 nM | 18 nM | CC(F)(F)CCCOc1cc(C(N)=O)cc2c(Br)c(C(F)(F)P(=O)(O)O)sc12 [Compound 281]
14.1 nM | 23.2 nM | CC(C)(O)CCCOc1cc(C(N)=O)cc2c(C(F)(F)F)c(C(F)(F)P(=O)(O)O)sc12 [Compound 456, ((5-carbamoyl-7-((4-hydroxy-4-methylpentyl)oxy)-3-(trifluoromethyl)benzo[b]thiophen-2-yl)difluoromethyl)phosphonic acid]
2.5 nM | 2.5 nM | NC(=O)c1cc(OC[C@H]2C[C@H](S(N)(=O)=O)C2)c2sc(C(F)(F)P(=O)(O)O)c(Br)c2c1 [Compound 381]

Structure (SMILES) | IC50 (human PTPN2 (1-387)) | IC50 (human PTPN1 (1-435))
CC(=O)NCc1cc(OCCCC(F)(F)F)c2sc(C(F)(F)P(=O)(O)O)c(Br)c2c1 [Compound 449, ((5-(acetamidomethyl)-3-bromo-7-(4,4,4-trifluorobutoxy)benzo[b]thiophen-2-yl)difluoromethyl)phosphonic acid] | 1190 nM | 812 nM
O=P(O)(O)C(F)(F)c1sc2c(OCCCC(F)(F)F)cc(I)cc2c1Br [Compound 406, ((3-bromo-5-iodo-7-(4,4,4-trifluorobutoxy)benzo[b]thiophen-2-yl)difluoromethyl)phosphonic acid] | 518 nM | 487 nM
C#Cc1cc(OCCCC(F)(F)F)c2sc(C(F)(F)P(=O)(O)O)c(Br)c2c1 [Compound 405, ((3-bromo-5-ethynyl-7-(4,4,4-trifluorobutoxy)benzo[b]thiophen-2-yl)difluoromethyl)phosphonic acid] | 288 nM | 290 nM
Cc1cc(CNC(=O)c2ccc3sc(C(F)(F)P(=O)(O)O)c(Br)c3c2)no1 [Compound 190] | 1830 nM | 1020 nM
CCc1noc(CNC(=O)c2ccc3sc(C(F)(F)P(=O)(O)O)c(Br)c3c2)n1 [Compound 196] | 3540 nM | 2100 nM
CCC(NC(=O)c1ccc2sc(C(F)(F)P(=O)(O)O)c(Br)c2c1)c1ccccn1 (stereo not drawn) [Compound 197] | 9460 nM | 7210 nM
